Here are results for 12 substances from patent publication US20230399661A1, “SHUTTLE AGENT PEPTIDES OF MINIMAL LENGTH AND VARIANTS THEREOF ADAPTED FOR TRANSDUCTION OF CAS9-RNP AND OTHER NUCLEOPROTEIN CARGOS” (priority 2020, published 2023).

The assay concerns HeLa cells. Put plainly: GFP-NLS transduction in the presence or absence of Cas9-RNP complex, flow cytometry. In kind it is cell-based, Human. Details: GFP transduction efficiency: concentration or dose not given beside the values. To be noted: for resistance/sensitivity of GFP transduction to inhibition by Cas9-RNP: presence vs absence of Cas9-RNP; for GFP transduction efficiency: presence of Cas9-RNP. The protocol: HeLa cells were plated (20 000 cells/well) in a 96 well-plate the day prior to the experiment in DMEM containing 10% FBS. A mix was prepared containing a synthetic peptide shuttle agent (10-30 μM), the GFP-NLS (10 μM) with or without a Cas9-NLS recombinant protein (2.5 μM) complexed with a crRNA/tracrRNA (2 μM) targeting the beta-2 microglobulin (B2M) gene and completed to 50 μL with PBS. Cells were washed once with PBS and the shuttle/GFP-NLS/Cas9-RNP mix was added to the cells and incubated for one minute. Then 100 μL DMEM containing 10% FBS was added to the mix. Cells were then immediately washed once with PBS and incubated in DMEM containing 10% FBS for two hours. Cells were the analyzed by flow cytometry.
To better understand the inhibitory effect of Cas9-RNP on shuttle agent transduction activity, HeLa cells were incubated with different peptides/shuttle agents and GFP cargo, in the presence or absence of Cas9-RNP, and delivery of GFP was assessed by flow cytometry, as described in Example 1. […] For some shuttle agents, the effect was particularly striking. For example, the GFP transduction efficiency for FSD268 decreased from 92% to 29%, the GFP transduction efficiency for FSD250 decreased from 83% to 13%, the GFP transduction efficiency for FSD10 decreased from 76% to 22%, and the GFP transduction efficiency for FSD395 decreased from 91% to 17%. […] Structure-activity relationships were explored further by repeating the above transduction experiments with shuttle agent variants sharing the same “core” amphipathic cationic alpha helical region as FSD10-15 (FIG. 4A), CM18 (FIG. 4B), and FSD356 (FIG. 4C).
On the technique in general: In flow cytometry, cells or beads pass a laser one at a time.

On to “CM18-L2-PTD4: CM18-based shuttle agent with lower C-terminal positive charge density (KWKLFKKIGAVLKVLTTGGGSGGGSYARAAARQARA; CM18-L2-PTD4)”, for which the “resistance/sensitivity of GFP transduction to inhibition by Cas9-RNP” value is “substantially more resistant to inhibition by Cas9-RNP”. Regarding “FSD357: FSD356 with the last three C-terminal residues (QAG) replaced with three positively-charged arginine residues (RRR) (KWKLLKLWSRLLKLWGGSGGGSRRR; FSD357)”, the GFP transduction efficiency came out at 4%.

As to “FSD446: shuttle agent with N-terminal segment identical to FSD356 and a C-terminal non-cationic hydrophilic segment (KWKLLKLWSRLLKLWGGSGGGSHTSDQTN; FSD446)”, the GFP transduction efficiency is recorded as 34%. As to “FSD187: shuttle agent variant sharing the same core region as FSD174; higher C-terminal positive charge density (LLKIWSRLIKIWTQGRRLGARKPRKSRQ; FSD187)”, the “resistance/sensitivity of GFP transduction to inhibition by Cas9-RNP” value was “generally more sensitive to Cas9-RNP inhibition”. On to “CM18-TAT: CM18-based shuttle agent having high C-terminal positive charge density (KWKLFKKIGAVLKVLTTGYGRKKRRQRRR; CM18-TAT)”, for which the “resistance/sensitivity of GFP transduction to inhibition by Cas9-RNP” value is “particularly marked sensitivities to inhibition by Cas9-RNP”. As for “FSD424: FSD10-15 with flanking glycine/serine-rich residues (KWKLARAFARAIKKLGGSGGGSGGSGGGS; FSD424)”, the “resistance/sensitivity of GFP transduction to inhibition by Cas9-RNP” value is “retained the peptide's resistance to Cas9-RNP”. Besides, the “GFP transduction activity relative to FSD10-15” value (FIG. 4A) was “improving GFP transduction activity over FSD10-15”. As for “FSD189: shuttle agent variant sharing the same core region as FSD174; higher C-terminal positive charge density (LLKIWSRLIKIWTQGRRLGRAQRAQRA; FSD189)”, the “resistance/sensitivity of GFP transduction to inhibition by Cas9-RNP” value is recorded as “generally more sensitive to Cas9-RNP inhibition”.

In the case of “FSD422: FSD10-15 with flanking histidine residues in place of the glycine/serine-rich residues (HHHHHHKWKLARAFARAIKKLHHHHHH; FSD422)”, the “resistance/sensitivity of GFP transduction to inhibition by Cas9-RNP” value was “did not maintain the same level of Cas9-RNP resistance”. On the same count and under the same terms, the result for “FSD251: shuttle agent containing three negatively-charged glutamate (E) residues in the peptide's C-terminal region (KWKLLKLWSRLLKLWGGSGGGSAEAAEQAE; FSD251)” reads “least sensitivity to Cas9-RNP inhibition”; that for “His-CM18-9Arg: CM18-based shuttle agent having high C-terminal positive charge density (HHHHHHKWKLFKKIGAVLKVLTTGRRRRRRRRR; His-CM18-9Arg)”, “particularly marked sensitivities to inhibition by Cas9-RNP”; that for “His-CM18-Transportan: CM18-based shuttle agent with lower C-terminal positive charge density (HHHHHHKWKLFKKIGAVLKVLTTGGWTLNSAGYLLKINLKALAALAKKIL; His-CM18-Transportan)”, “substantially more resistant to inhibition by Cas9-RNP”. In the case of “FSD241: shuttle agent: FSD10-15 core, C-terminal glycine/serine-rich linker fused to a second cationic domain (KWKLARAFARAIKKLGGSGGGSYARAAARQARA; FSD241)”, the “resistance/sensitivity of GFP transduction to inhibition by Cas9-RNP” value is “more sensitive to inhibition by Cas9-RNP”.
